Test results reported in patent publication EP4692088A1, “COMPOUND ACTING AS WRN HELICASE INHIBITOR” (SHANGHAI JEYOU PHARMACEUTICAL CO., LTD., priority 2023, dated 2024).

What follows are compounds tested on SW48 cells (assay: Cell proliferation assay (CellTiter-Glo), SW48). Conditions: Homo sapiens, SW48, 120 h, SW-48, 5 days incubation.
Format: cell-based
Description: (§1) SW48 cells were plated at a density of 1,500 cells/well, and LoVo, HCT116, and SW620 cells were plated at a density of 800 cells/well in a 96-well cell culture plate, and cultured in a 37°C incubator overnight. The test compounds, which were gradient-diluted with DMSO, were added, and after incubation for 5 days, cell viability was detected using a CellTiter-Glo kit. The CellTiter-Glo reagent was equilibrated to room temperature, and an appropriate amount was added to the cell plate, followed by shaking at room temperature for 12 min. The luminescence signal was detected using a microplate reader.
(§2) The luminescence signal values of the DMSO-treated wells and cell-free wells were used as negative and positive controls, respectively, to calculate the inhibition rate of compound on cell proliferation. The concentration-inhibition curve was fitted using the "log(inhibitor) vs. normalized response -- Variable slope" equation in GraphPad Prism 8 software to obtain the IC50. [formula]
Compound `CCc1c(N2CCN(C(=O)c3ncnc(C)c3O)CC2)c(=O)c2nn(C3=CCOCC3)nc2n1CC(=O)Nc1ccc(C(F)(F)F)cc1Cl` [Example 4] has an IC50 of 37.2 nM. Compound `CCc1c(N2CCN(C(=O)c3ncnc(C)c3O)CC2)c(=O)c2nn(C3=CCOCC3)nc2n1CC(=O)Nc1cc(F)c(C(F)(F)F)cc1Cl` [Example 15] has an IC50 of 35.4 nM. Compound `CCc1c(N2CCN(C(=O)c3ncnc(C)c3O)CC2)c(=O)c2nn(C3=CCOCC3)nc2n1CC(=O)Nc1cc(F)c(Cl)cc1Cl` [Example 22] has an IC50 of 70.7 nM.

Each compound was assayed against T1, WRN enzyme (Homo sapiens, UniProt Q14191) (assay: biochemical). Conditions: not given.
T1 construct: host or cells: eukaryotic cells (not further specified)
T1 sequence (Q14191 whole entry): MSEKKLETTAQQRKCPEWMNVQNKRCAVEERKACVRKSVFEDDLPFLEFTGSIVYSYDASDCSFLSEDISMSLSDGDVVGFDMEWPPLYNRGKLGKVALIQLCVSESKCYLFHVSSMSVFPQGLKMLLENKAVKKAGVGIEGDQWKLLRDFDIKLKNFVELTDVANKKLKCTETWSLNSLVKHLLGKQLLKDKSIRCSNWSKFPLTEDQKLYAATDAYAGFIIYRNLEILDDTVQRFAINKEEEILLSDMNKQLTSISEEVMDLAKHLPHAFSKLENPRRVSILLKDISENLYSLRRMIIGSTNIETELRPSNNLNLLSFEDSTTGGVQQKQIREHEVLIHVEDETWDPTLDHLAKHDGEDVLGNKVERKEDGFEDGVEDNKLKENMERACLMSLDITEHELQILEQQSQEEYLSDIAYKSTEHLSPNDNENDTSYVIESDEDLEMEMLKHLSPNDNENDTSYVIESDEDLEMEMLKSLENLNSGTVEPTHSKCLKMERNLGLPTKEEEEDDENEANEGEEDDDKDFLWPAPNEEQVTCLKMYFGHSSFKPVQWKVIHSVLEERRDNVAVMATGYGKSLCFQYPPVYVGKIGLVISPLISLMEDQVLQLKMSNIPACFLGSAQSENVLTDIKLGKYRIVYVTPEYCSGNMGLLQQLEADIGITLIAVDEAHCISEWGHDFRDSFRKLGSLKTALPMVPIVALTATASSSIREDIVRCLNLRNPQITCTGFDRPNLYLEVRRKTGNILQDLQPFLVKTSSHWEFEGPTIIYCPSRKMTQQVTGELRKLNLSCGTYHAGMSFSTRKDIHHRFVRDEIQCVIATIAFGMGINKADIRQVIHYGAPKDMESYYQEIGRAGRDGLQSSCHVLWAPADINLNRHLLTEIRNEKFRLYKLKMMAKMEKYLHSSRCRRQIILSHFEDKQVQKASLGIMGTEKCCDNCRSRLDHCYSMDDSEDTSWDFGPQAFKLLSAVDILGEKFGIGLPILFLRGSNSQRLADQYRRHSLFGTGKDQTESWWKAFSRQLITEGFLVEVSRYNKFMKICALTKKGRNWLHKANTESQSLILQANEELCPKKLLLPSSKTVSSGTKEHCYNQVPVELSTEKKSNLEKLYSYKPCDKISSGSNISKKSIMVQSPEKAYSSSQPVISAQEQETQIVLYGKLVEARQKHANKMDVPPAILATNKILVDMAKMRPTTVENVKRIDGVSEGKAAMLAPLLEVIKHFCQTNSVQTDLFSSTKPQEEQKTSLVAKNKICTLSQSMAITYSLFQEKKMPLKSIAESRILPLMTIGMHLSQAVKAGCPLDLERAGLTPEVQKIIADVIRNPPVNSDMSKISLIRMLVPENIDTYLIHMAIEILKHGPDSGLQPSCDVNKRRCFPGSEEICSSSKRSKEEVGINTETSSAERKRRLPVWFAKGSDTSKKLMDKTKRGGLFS
Description: The WRN enzyme used in the experiment has a His-TEV tag at the N-terminus and is expressed in eukaryotic cells with a purity of 90%. The assay kit (ADP-Glo™ Kinase Assay) was purchased from Promega (Cat. No. V9101), aliquoted, and then stored in the refrigerator at -40°C. This kit could quantitatively detect the amount of ADP generated in the reaction. WRN hydrolyzed ATP to produce ADP. The ADP-Glo reagent was added to deplete excess ATP in the reaction system, followed by the addition of Kinase Detection Reagent to convert the ADP produced by the reaction into ATP and produce chemiluminescence. The enzyme activity of WRN can be reflected by detecting the chemiluminescence signal using a microplate reader.
Single-stranded DNA was annealed to form double-stranded DNA. 5× Annealing Buffer: 50 mM Tris pH 8.0, 100 mM NaCl. Annealing program: 95°C, 5 min.
2× WRN enzyme (1 nM) and 2× substrate (1 nM double-stranded DNA, 100 µM ATP) were prepared using a buffer (20 mM Bicine (pH 7.5), 10 mM KCl, 10 mM MgCl2, 0.005% BSG, 0.002% Tween 20, 1 mM TCEP). The test compound was dissolved in DMSO to 10 mM and was gradient-diluted using a 96-well V-bottom plate. First, 25 µL of 2× WRN enzyme and 0.5 µL of compound were added to a 96-well plate and incubated at room temperature for 30 min. Then, 25 µL of 2× substrate was added, and the reaction was carried out at room temperature for 60 min. 5 µL was taken from the reaction plate and transferred to a 384-well plate for detection. 5 µL of ADP-Glo reagent was added and incubated at room temperature for 60 min, followed by the addition of 10 µL of Kinase Detection Reagent and incubation at room temperature for 40 min. The chemiluminescence signal was detected using a microplate reader.
`CCc1c(N2CCN(C(=O)c3ncnc(C)c3O)CC2)c(=O)c2nn(C3=CCOCC3)nc2n1CC(=O)Nc1ccc(C(F)(F)F)cc1Cl` [Example 4] was tested, and the IC50 was 88.5 nM. In the case of `CCc1c(N2CCN(C(=O)c3ncnc(C)c3O)CC2)c(=O)c2nn(C3=CCOCC3)nc2n1CC(=O)Nc1cc(F)c(C(F)(F)F)cc1Cl` [Example 15], the IC50 is reported as 34.3 nM. `CCc1c(N2CCN(C(=O)c3ncnc(C)c3O)CC2)c(=O)c2nn(C3=CCOCC3)nc2n1CC(=O)Nc1cc(F)c(Cl)cc1Cl` [Example 22] gave an IC50 of 46.8 nM.

These compounds were tested on SW620 cells (assay: Cell proliferation assay (CellTiter-Glo), SW620). Conditions: Homo sapiens, 120 h, SW-620 (MSS), 5 days incubation.
Format: cell-based
Description: as §1, §2
`CCc1c(N2CCN(C(=O)c3ncnc(C)c3O)CC2)c(=O)c2nn(C3=CCOCC3)nc2n1CC(=O)Nc1ccc(C(F)(F)F)cc1Cl` [Example 4] showed an IC50 greater than 25000 nM. With `CCc1c(N2CCN(C(=O)c3ncnc(C)c3O)CC2)c(=O)c2nn(C3=CCOCC3)nc2n1CC(=O)Nc1cc(F)c(C(F)(F)F)cc1Cl` [Example 15] the IC50 was greater than 25000 nM. Work on `CCc1c(N2CCN(C(=O)c3ncnc(C)c3O)CC2)c(=O)c2nn(C3=CCOCC3)nc2n1CC(=O)Nc1cc(F)c(Cl)cc1Cl` [Example 22] yielded an IC50 greater than 25000 nM.

The compounds below were run against T1, WRN enzyme (assay: WRN helicase activity assay (unwinding of BHQ2/Cy5-labelled double-stranded DNA, fluorescence)). Conditions: Table 3, 30 min pre-incubation, 30 min reaction.
Format: biochemical
From the text: The WRN enzyme used in the experiment has a His-TEV tag at the N-terminus and is expressed in eukaryotic cells with a purity of 90%. The two single-stranded DNAs used for assay are labeled with BHQ2 and Cy5, respectively. When two fluorophores are in close proximity (when the DNA is in a double-stranded state), no fluorescence signal is detected due to the quenching effect. WRN has helicase activity, which enables the unwinding of double-stranded DNA to form single strands, thereby generating a fluorescence signal.
Two labeled single-stranded DNA strands were annealed to form double-stranded DNA. Annealing buffer: 12 mM Tris (pH 8.0), 300 mM NaCl, 12 mM MgCl2, 2 mM DTT. Annealing program: 95°C, 5 min.
2× WRN enzyme (2 nM) and 2× substrate (100 nM double-stranded DNA, 1000 nM capture DNA, 100 µM ATP) were prepared using buffer (20 mM Bicine, 10 mM KCl, 1 mM MgCl2, 0.005% BSG, 1 mM TCEP, 0.1% F-127, pH 7.5). The test compound was dissolved in DMSO to 10 mM and was gradient-diluted using a 96-well V-bottom plate. 0.5 µL of compound was added to 25 µL of 2× WRN enzyme and incubated at room temperature for 30 min. 25 µL of 2× substrate was added, and the reaction was carried out at room temperature for 30 min. Detection was performed using a microplate reader with an excitation wavelength of 620 nm and an emission wavelength of 685 nm.
The concentration-effect curve was fitted using GraphPad Prism 8 software, and the compound concentration for 50% inhibition (IC50) was calculated. The percentage inhibition for each compound concentration was first calculated, and then the concentration-effect curve was fitted using the "log(inhibitor) vs. normalized response -- Variable slope" equation in GraphPad Prism 8 software to obtain the IC50. [formula] • Positive control: 25 µL 2× WRN enzyme + 0.5 µL DMSO + 25 µL 2× substrate • Negative control: 25 µL 2× buffer + 0.5 µL DMSO + 25 µL 2× substrate
In the case of `CCc1c(N2CCN(C(=O)c3ncnc(C)c3O)CC2)c(=O)c2nn(C3=CCOCC3)nc2n1CC(=O)Nc1ccc(C(F)(F)F)cc1Cl` [Example 4], the IC50 is reported as 60.9 nM. Compound `CCc1c(N2CCN(C(=O)c3ncnc(C)c3O)CC2)c(=O)c2nn(C3=CCOCC3)nc2n1CC(=O)Nc1cc(F)c(C(F)(F)F)cc1Cl` [Example 15] has an IC50 of 70.2 nM. `CCc1c(N2CCN(C(=O)c3ncnc(C)c3O)CC2)c(=O)c2nn(C3=CCOCC3)nc2n1CC(=O)Nc1cc(F)c(Cl)cc1Cl` [Example 22] showed an IC50 of 72.1 nM.
